From PubChem BioAssay AID248 (DTP/NCI, 2004)
“And” between values parts separate entries of the source, which are not always exact repeats. Identical values can stand only once. Toxic doses and inconclusive results are not listed. No stated cut-off is given here; in the data, active means T/C of 150% or more; inactive means T/C below 125%.

Test system: L1210 leukemia ip in BDF1 mice, survival T/C
Experiment: NCI In Vivo Anticancer Drug Screen. Data for tumor model L1210 Leukemia (intraperitoneal) in B6D2F1 (BDF1) mice
Conditions: endpoint: mean survival time, higher = longer survival
How it was run: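 Mice bearing the transplanted tumor received compound or vehicle. Survival of the treated group was divided by that of the vehicle-treated control group to give the ratio.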

[1] = dose: 25.0 mg/kg/injection, schedule: Q04DX003 (ip), vehicle: saline with Tween-80
[2] = dose: 50.0 mg/kg/injection, schedule: Q04DX003 (ip), vehicle: saline with Tween-80
[3] = dose: 100.0 mg/kg/injection, schedule: Q04DX003 (ip), vehicle: saline with Tween-80
[4] = dose: 100.0 mg/kg/injection, schedule: Q04DX003 (ip), vehicle: Klucel (hydroxypropylcellulose) (HPC)
[5] = dose: 200.0 mg/kg/injection, schedule: Q04DX003 (ip), vehicle: Klucel (hydroxypropylcellulose) (HPC)
[6] = dose: 400.0 mg/kg/injection, schedule: Q04DX003 (ip), vehicle: Klucel (hydroxypropylcellulose) (HPC)
[7] = dose: 100.0 mg/kg/injection, schedule: Q01DX009 (ip), vehicle: Klucel (hydroxypropylcellulose) (HPC)
[8] = dose: 200.0 mg/kg/injection, schedule: Q01DX009 (ip), vehicle: Klucel (hydroxypropylcellulose) (HPC)
[9] = dose: 400.0 mg/kg/injection, schedule: Q01DX009 (ip), vehicle: Klucel (hydroxypropylcellulose) (HPC)
[10] = dose: 100.0 mg/kg/injection, schedule: Q01DX009 (ip), vehicle: saline with Tween-80
[11] = dose: 200.0 mg/kg/injection, schedule: Q01DX009 (ip), vehicle: saline with Tween-80
[12] = dose: 400.0 mg/kg/injection, schedule: Q01DX009 (ip), vehicle: saline with Tween-80
[13] = dose: 200.0 mg/kg/injection, schedule: Q04DX003 (ip), vehicle: saline with Tween-80
[14] = dose: 400.0 mg/kg/injection, schedule: Q04DX003 (ip), vehicle: saline with Tween-80

Measured: T/C

O=C(O)C1(C(=O)O)CCC1.[NH2-].[NH2-].[Pt+2]
active: dose: 64.0 mg/kg/injection, schedule: Q01DX009 (ip), vehicle: saline 171 % of control | dose: 100.0 mg/kg/injection, schedule: Q04DX003 (ip), vehicle: saline 154 % of control and 176 % of control | dose: 128.0 mg/kg/injection, schedule: Q01DX001 (ip), vehicle: saline 152 % of control
inactive: dose: 2.0 mg/kg/injection, schedule: Q01DX009 (ip), vehicle: saline 97 % of control | dose: 4.0 mg/kg/injection, schedule: Q01DX001 (ip), vehicle: saline 100 % of control | dose: 4.0 mg/kg/injection, schedule: Q01DX009 (ip), vehicle: saline 100 % of control | dose: 8.0 mg/kg/injection, schedule: Q01DX001 (ip), vehicle: saline 100 % of control | dose: 8.0 mg/kg/injection, schedule: Q01DX009 (ip), vehicle: saline 108 % of control | dose: 16.0 mg/kg/injection, schedule: Q01DX001 (ip), vehicle: saline 102 % of control | dose: 16.0 mg/kg/injection, schedule: Q01DX009 (ip), vehicle: saline 119 % of control | dose: 25.0 mg/kg/injection, schedule: Q04DX003 (ip), vehicle: saline 110 % of control and 113 % of control | dose: 200.0 mg/kg/injection, schedule: Q04DX003 (ip), vehicle: saline 97 % of control and 105 % of control

C=CCNC(=O)/C=C/C(=O)NCC=C
inactive: [1] 97 % of control | [2] 97 % of control | [3] 89 % of control

CCCCCCCCCCCCCCCC(=O)Nc1ccc(C(=O)O)cc1
inactive: [4] 95 % of control | [5] 94 % of control | [6] 94 % of control

CCOc1ccc(/C=C2\N=C(c3ccc([N+](=O)[O-])cc3)OC2=O)cc1
inactive: [7] 97 % of control | [8] 87 % of control | [9] 94 % of control

O=c1c2ccccc2[nH]c2c([N+](=O)[O-])cccc12
inactive: [10] 100 % of control | [11] 99 % of control | [12] 87 % of control

C#CC1(OC(=O)Nc2cc3ccccc3o2)CCCCC1
inactive: [3] 90 % of control | [13] 95 % of control | [14] 92 % of control

N=C(N)CC(=O)CC(=N)N
inactive: dose: 50.0 mg/kg/injection, schedule: Q01DX009 (ip), vehicle: saline 91 % of control | dose: 100.0 mg/kg/injection, schedule: Q01DX009 (ip), vehicle: saline 91 % of control | dose: 200.0 mg/kg/injection, schedule: Q01DX009 (ip), vehicle: saline 98 % of control

CCOC(=O)c1cnc(SC)nc1C(=O)OCC
inactive: dose: 50.0 mg/kg/injection, schedule: Q04DX003 (ip), vehicle: Klucel (hydroxypropylcellulose) (HPC) 102 % of control | [4] 94 % of control | [5] 102 % of control

O=C(CCl)NC1CCC(CC2CCCCC2)CC1 (centres undefined)
inactive: [4] 99 % of control | [5] 93 % of control | [6] 89 % of control

c1ccc2[nH]c(CN3CCCCC3)cc2c1
inactive: dose: 12.5 mg/kg/injection, schedule: Q04DX003 (ip), vehicle: saline with Tween-80 103 % of control | [1] 98 % of control | [2] 98 % of control

O=[N+]([O-])c1ccc(C=Nc2ccccc2-c2ccccc2)s1
inactive: [4] 98 % of control | [5] 98 % of control | [6] 95 % of control

O=NN(C(=O)NC1CCCCC1)C1CCCCC1
inactive: dose: 100.0 mg/kg/injection, schedule: Q01DX001 (ip), vehicle: carboxymethylcellulose (CMC) 106 % of control | dose: 200.0 mg/kg/injection, schedule: Q01DX001 (ip), vehicle: carboxymethylcellulose (CMC) 106 % of control | dose: 300.0 mg/kg/injection, schedule: Q01DX001 (ip), vehicle: carboxymethylcellulose (CMC) 106 % of control | dose: 400.0 mg/kg/injection, schedule: Q01DX001 (ip), vehicle: carboxymethylcellulose (CMC) 109 % of control | dose: 500.0 mg/kg/injection, schedule: Q01DX001 (ip), vehicle: carboxymethylcellulose (CMC) 112 % of control

CCCCCC(OCC)(OCC)OCC
inactive: [7] 95 % of control | [4] 104 % of control | [8] 96 % of control | [5] 93 % of control | [9] 92 % of control | [6] 93 % of control

COc1ccc(C(CC(=O)c2ccccc2)Sc2ccccc2N)cc1OC (centres undefined)
inactive: dose: 50.0 mg/kg/injection, schedule: Q01DX009 (ip), vehicle: Klucel (hydroxypropylcellulose) (HPC) 97 % of control | dose: 100.0 mg/kg/injection, schedule: Q01DX005 (ip), vehicle: Klucel (hydroxypropylcellulose) (HPC) 101 % of control | [7] 94 % of control | dose: 100.0 mg/kg/injection, schedule: Q04DX002 (ip), vehicle: saline with Tween-80 98 % of control | dose: 200.0 mg/kg/injection, schedule: Q01DX005 (ip), vehicle: Klucel (hydroxypropylcellulose) (HPC) 108 % of control | [8] 94 % of control | dose: 200.0 mg/kg/injection, schedule: Q04DX002 (ip), vehicle: saline with Tween-80 106 % of control | dose: 400.0 mg/kg/injection, schedule: Q04DX002 (ip), vehicle: saline with Tween-80 113 % of control

CC(C)=NNS(=O)(=O)c1ccccc1
inactive: dose: 50.0 mg/kg/injection, schedule: Q01DX009 (ip), vehicle: saline with Tween-80 106 % of control | [10] 108 % of control | [11] 101 % of control

Cc1ccc(CSc2ssc(=S)c2-c2ccccc2)cc1
inactive: [10] 101 % of control | dose: 100.0 mg/kg/injection, schedule: Q04DX003 (ip), vehicle: acetone 99 % of control | [11] 97 % of control | dose: 200.0 mg/kg/injection, schedule: Q04DX003 (ip), vehicle: acetone 98 % of control | [12] 95 % of control | dose: 400.0 mg/kg/injection, schedule: Q04DX003 (ip), vehicle: acetone 91 % of control

c1ccc2c(c1)ccc1c3ccccc3[nH]c21
inactive: [3] 93 % of control | [13] 105 % of control | [14] 96 % of control

[N-]=[N+]=C1C(=O)NC(=O)NC1C(=O)O (centres undefined)
inactive: dose: 75.0 mg/kg/injection, schedule: Q01DX009 (ip), vehicle: Klucel (hydroxypropylcellulose) (HPC) 103 % of control | dose: 100.0 mg/kg/injection, schedule: Q01DX001 (ip), vehicle: Klucel (hydroxypropylcellulose) (HPC) 96 % of control | dose: 150.0 mg/kg/injection, schedule: Q01DX009 (ip), vehicle: Klucel (hydroxypropylcellulose) (HPC) 119 % of control | dose: 200.0 mg/kg/injection, schedule: Q01DX001 (ip), vehicle: Klucel (hydroxypropylcellulose) (HPC) 100 % of control | dose: 300.0 mg/kg/injection, schedule: Q01DX009 (ip), vehicle: Klucel (hydroxypropylcellulose) (HPC) 107 % of control | dose: 400.0 mg/kg/injection, schedule: Q01DX001 (ip), vehicle: Klucel (hydroxypropylcellulose) (HPC) 86 % of control
